Test results taken from patent US10844101B2, “Plant-derived elastin binding protein ligands and methods of using the same” (ELASTOGENESIS, LLC, priority 2005, dated 2020).
“Also recorded” adds a separate entry of the source.

Key:
[1] = tested on: human dermal fibroblasts; assay: Immunostaining with anti-tropoelastin antibody and morphometric analysis of elastic fiber deposition in 7-day dermal fibroblast cultures; assay type: cell-based; details: for elastogenesis level compared with VGVAPG or EBPL-1 treated cultures: 7 day-old primary cultures of dermal fibroblasts; for extracellular elastic fibers deposited (anti-tropoelastin immunostaining) / levels of intra- and extracellular tropoelastin (immunocytochemical staining): 7 days; for extracellular elastic fibers deposited (anti-tropoelastin immunostaining): fibroblasts, VGVAPG 5 μg/mL, EBPL-2 5 μg/mL, EBPL-3 10 μg/mL; for more elastic fibers / tropoelastin than control cultures, maximally produced (quantitative morphometric analysis of immuno-detectable tropoelastin): maximum effect vs control
Protocol: In all experiments except those using CDBR, consecutive passages 3-7 were tested. Cells were incubated in the presence and absence of VGVAPG (SEQ ID NO. 1) (5 μg/mL), EBPL-2 (5 μg/mL) and EBPL-3 (10 μg/mL). In experiments using CDRB cell passage 3 was tested, cells were densely plated (50×10^6 cells/dish) to rich immediate confluency and than cultured for 7 days in the presence and absence of 25 μg/ml CDBR (added at day 1 and 3).

[2] = tested on: human fibroblasts derived from normal human skin; assay: [3H]-valine metabolic labeling and assay of newly deposited NaOH-insoluble elastin in fibroblast cultures; assay type: cell-based; details: [3H]-valine labeling 3 days; for net deposition of insoluble elastin, maximum over control values: expressed per culture dish, dose dependent
Protocol: Fibroblasts were densely plated (50×10^5/dish) and grown to confluency in 10 cm cell culture dishes in quadruplicate. 20 μCi of [^3H]-valine was added to each dish along with fresh media. Cultures were then incubated for 72 hours and insoluble elastin was assessed separately in each culture.

[3] = tested on: elastin gene in adult dermal fibroblasts; assay: RT-PCR with specific tropoelastin probe (transcription of the elastin gene); assay type: cell-based, human; details: serum-free medium and 10% FBS
Source text: Using a BLAST search through the National Library of Medicine website, we identified the IGVAPG (SEQ ID NO. 13) domain in the amino acid sequence for a transcription factor of Japanese rice, which also reflects the common EBP-binding GXXPG (SEQ ID NO. 2) motif found in elastin and laminin. We used RT-PCR to measure transcription of the elastin gene by peptides of the invention.

[4] = tested on: dermal fibroblasts; assay: Cellular proliferation by [3H]-thymidine incorporation; assay type: cell-based, human; details: dermal fibroblasts vs control
Source text: Results of this calculation, showing a more profound effect of EBPL-2 on net deposition of insoluble elastin per culture, led to the hypothesis that EBPL-2, similarly to VGVAPG (SEQ ID NO. 1), also stimulates cellular proliferation.

[5] = tested on: human skin explants; assay: Organ cultures of human skin explants stained with Movat pentachrome stain; assay type: cell-based
[6] = adult dermal fibroblasts, 7 day old cultures
[7] = organ cultures of human skin biopsies

## IGVAPG (Synthetic derived from Oryza sativa) [EBPL-2]
[1]
  elastogenesis level compared with VGVAPG or EBPL-1 treated cultures: capable of inducing elastogenesis to the levels that exceed those obtained in cultures treated with VGVAPG; also recorded: higher net deposition of tropoelastin than their counterparts cultured with VGVAPG
  extracellular elastic fibers deposited (anti-tropoelastin immunostaining): deposition of thick extracellular elastic fibers
[1]; [6]
  more elastic fibers / tropoelastin than control cultures, maximally produced (quantitative morphometric analysis of immuno-detectable tropoelastin): 710%
[1]; adult dermal fibroblasts, 7 day old cultures, maximum vs maximum ProK-60
  more tropoelastin than maximum ProK-60-induced levels: 141%
[1]; adult dermal fibroblasts
  levels of intra- and extracellular tropoelastin (immunocytochemical staining): enhanced levels of intra- and extracellular tropoelastin
[2]; 10 μg/mL, normalized per DNA content
  more radioactively labeled insoluble elastin as compared to non-treated fibroblasts: 36%
[2]
  net deposition of insoluble elastin, maximum over control values: 175%
[3]
  transcription of the elastin gene: increased transcription of the elastin gene
[4]
  incorporation of [3H]-thymidine (cellular proliferation): higher than control incorporation of [^3H]-thymidine
[5]; 10-day old organ cultures, person
  elastic fibers (black stain) in skin explant organ cultures: contained more elastic fibers
[5]; [7]
  dilatation of existing dermal capillaries: stimulates dilatation of existing capillaries
  production of new elastic fibers by pericytes: stimulated production of new elastic fibers by pericytes

## IGVAPGAAAAAIGVAPG (Synthetic derived from Oryza sativa) [EBPL-3]
[1]
  elastogenesis level compared with VGVAPG or EBPL-1 treated cultures: capable of inducing elastogenesis to the levels that exceed those obtained in cultures treated with VGVAPG
  extracellular elastic fibers deposited (anti-tropoelastin immunostaining): deposition of thick extracellular elastic fibers

## VGVAPG (Synthetic derived from Oryza sativa) [elastin receptor ligand hexapeptide obtained from Sigma, reference compound]
[1]
  extracellular elastic fibers deposited (anti-tropoelastin immunostaining): very thin extracellular elastic fibers at levels greater than the control levels
[1]; [6]
  more elastic fibers / tropoelastin than control cultures, maximally produced (quantitative morphometric analysis of immuno-detectable tropoelastin): 457%
[1]; adult dermal fibroblasts
  levels of intra- and extracellular tropoelastin (immunocytochemical staining): enhanced levels of intra- and extracellular tropoelastin
[2]
  net deposition of insoluble elastin, maximum over control values: 109%
[3]
  transcription of the elastin gene: stimulated transcription
[4]
  incorporation of [3H]-thymidine (cellular proliferation): higher than control incorporation of [^3H]-thymidine

## VGVAPGAAAAAVGVAPG (Synthetic derived from Oryza sativa) [EBPL-1]
[1]
  extracellular elastic fibers deposited (anti-tropoelastin immunostaining): very thin extracellular elastic fibers at levels greater than the control levels
